The text below walks through data of ChEMBL document CHEMBL1201862, “PubChem BioAssay data set” (2004).

Some test systems named below: A498; COLO 205; HCC 2998; HL-60; IGROV-1; LOX IMVI; M14; MCF7; MDA-MB-435; MDA-N; MOLT-4; Malme-3M; NCI-H23; NCI-H460; RPMI-8226; SK-MEL-28; SK-MEL-5; SNB-19; SW-620; UACC-62.
Common to all, as to experiment: growth of human tumour cells (NCI), 48 h

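Exposure lasted 48 hours, with cells grown in 96-well plates and compounds tested at five concentrations. GI50 is the concentration that inhibits growth by half.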 Calls of active or inactive are those of the source. Cut-off read from the data, not from the text of the source: active = GI50 up to about 1.1 µM and inactive = higher. Where only a bound is given, the exact number is not on record here.

With `CCOC(=O)C(NS(=O)(=O)c1ccccc1)(C(F)(F)F)P(=O)(OCC(C)C)OCC(C)C` (stereo not given), the GI50 with A498, in the assay with COLO 205, in the assay on HCC 2998, in the assay with HL-60, in the assay with IGROV-1 and in the assay on LOX IMVI was > 100 µM (inactive) each time. The GI50 with M14, in the assay with MCF7, in the assay on MDA-MB-435, in the assay on MDA-N, in the assay with MOLT-4 and in the assay with Malme-3M was > 100 µM (inactive) each time. Moreover, the GI50 with NCI-H23, in the assay with NCI-H460, in the assay on RPMI-8226, in the assay on SK-MEL-28, in the assay with SK-MEL-5 and in the assay on SNB-19 was > 100 µM (inactive) each time. Also, the GI50 in the assay with SW-620 and in the assay with UACC-62 was > 100 µM (inactive) in each case.
In the case of `C/C(=N\NC(=[Se])N(C)C)c1ccccn1`, the GI50 with A498 is 0.4 µM (active); with COLO 205, < 0.01 µM (active); in the assay on HCC 2998, 0.459 µM (active); in the assay on HL-60, < 0.01 µM (active); in the assay on IGROV-1 it was < 0.01 µM (active); with LOX IMVI, < 0.01 µM (active). In addition, the GI50 with M14 is 0.0158 µM (active); with MCF7, < 0.01 µM (active); in the assay with MDA-MB-435, 1.11 µM (active); with MDA-N it was 1.89 µM (inactive); with MOLT-4, < 0.01 µM (active); in the assay on Malme-3M it was 0.47 µM (active). Further, the GI50 is < 0.01 µM (active) with NCI-H23; < 0.01 µM (active) in the assay on NCI-H460; < 0.01 µM (active) with RPMI-8226; 1.91 µM (inactive) in the assay with SK-MEL-28; 0.0263 µM (active) in the assay on SK-MEL-5; 1.37 µM (inactive) in the assay with SNB-19. Besides, the GI50 with SW-620 and in the assay on UACC-62 was < 0.01 µM (active) each time.
Turning to `CC(=O)Nc1nnc(S(=O)(=O)NC(=S)Nc2ccc(Cl)cc2)s1`, the GI50 with A498, with COLO 205, with HCC 2998, with HL-60, in the assay with IGROV-1 and in the assay on LOX IMVI was > 100 µM (inactive) throughout. The GI50 in the assay on M14, in the assay with MCF7, in the assay with MDA-MB-435, in the assay with MDA-N, with MOLT-4 and in the assay with Malme-3M was > 100 µM (inactive) in each case. Further, the GI50 in the assay with NCI-H23, with NCI-H460, with RPMI-8226, in the assay on SK-MEL-28, with SK-MEL-5 and with SNB-19 was > 100 µM (inactive) each time. In addition, the GI50 with SW-620 and with UACC-62 was > 100 µM (inactive) throughout.
As to `CCN(CC)CCCC(C)Nc1ccnc2cc(Cl)ccc12` (stereo not given) [CHLOROQUINE PHOSPHATE], the GI50 is 24.3 µM (inactive) in the assay on A498; 9.38 µM (inactive) in the assay with COLO 205; 19.5 µM (inactive) with HCC 2998; 13.3 µM (inactive) with HL-60; 24.5 µM (inactive) in the assay on IGROV-1; 20.6 µM (inactive) with LOX IMVI. Moreover, the GI50 was 15 µM (inactive) with M14; 19.1 µM (inactive) in the assay on MCF7; 16.4 µM (inactive) with MDA-MB-435; 16.6 µM (inactive) with MDA-N; 15.2 µM (inactive) with MOLT-4; 20.9 µM (inactive) in the assay with Malme-3M. The GI50 in the assay with NCI-H23 is > 84.7 µM (inactive); with NCI-H460, 18 µM (inactive); in the assay on RPMI-8226 it was 19.5 µM (inactive); with SK-MEL-28, 20.6 µM (inactive); with SK-MEL-5, 26.2 µM (inactive); in the assay on SNB-19, > 76.4 µM (inactive). Besides, the figures for the GI50 in the assay on SW-620 and with UACC-62 were > 57.4 µM (inactive) and 28.8 µM (inactive), respectively.
